Assay results from patent US5688830A, “Treatment of neuropathic pain” (Syntex (U.S.A.) Inc., priority 1997, dated 1997).
Like-named read-outs stand apart in the source and are kept apart here.

How the values were obtained:
cold allodynia in rats [1] = experiment: Cold allodynia in vivo assay (chronic constriction injury), chronic studies; set-up: species or system rat; conditions: for anti-allodynia after chronic dosing: subcutaneous, 5 days of twice daily dosing
Protocol: This assay determines the effectiveness of compounds in relieving one of the symptoms of neuropathic pain produced by unilateral mononeuropathy, namely cold allodynia. Unilateral mononeuropathy was produced in rats using the Chronic Constriction Injury model performed essentially as described by Bennet and Xie, Pain, (1988) 33:87-107. Briefly, the rats were anesthetized with an intraperitoneal dose of pentobarbital sodium (65 mg/kg) with additional doses of anesthetic given as needed. The lateral aspect of each rat's hind limb was shaved and scrubbed with Novasan. Using aseptic technique, an incision was made on the lateral aspect of the hind limb at the mid-thigh level. The biceps femoris was bluntly dissected to expose the sciatic nerve. On the right hind limb of each rat, four loosely tied ligatures were made around the sciatic nerve approximately 1-2 millimeters apart. On the left side of each rat, an identical dissection was performed except that the sciatic nerve was not ligated. The muscle was closed with a continuous suture pattern, and the skin was closed with wound clips. Each rat was placed individually into a plexiglass chamber with a metal plate 6 cm from the bottom. This chamber was filled with ice water to a depth of 2.5 cm above the metal plate, with the temperature of the bath maintained at 0° C. throughout the experiment. A timer was started, and the rat's response latency was measured to the nearest tenth of a second. A "response" was defined as a rapid withdrawal of the right ligated hindpaw completely out of the water while the animal was stationary and not pivoting. An exaggerated limp while the animal was walking was not scored as a response. Maximum immersion time was 20 seconds with a 20 minute interval between trials. The screening criteria were 1) the average of two trials was less than or equal to 13 seconds, and 2) there was consistency across the two trial scores. Animals were screened for hypersensitivity to cold on post-surgery days 4 through 10, and selected for inclusion in dose-response studies based on the criteria described above. The pre-dose screening values were used as the animal's baseline cold allodynia scores. For chronic studies, the animals received subcutaneous or oral injections twice daily for 4 days and once on day 5. The animals were tested for allodynia on day 1 at 1, 3 and 5 hours following the 8 am dose, and at 5 hours following the 8 am dose on days 3 and 5. Two days later, the animals were tested for cold allodynia to assess whether there was a wash-out of the drug being tested. Following this screening for cold allodynia, the animals in two of the three chronic studies received either subcutaneous or oral injections of the drug at a dose previously shown to produce significant anti-allodynic effects acutely. […]

cold allodynia in rats [2] = experiment: Cold allodynia in vivo assay (chronic constriction injury), acute studies; set-up: species or system rat; conditions: subcutaneous; for ED50: Rattus norvegicus, sc
Protocol: This assay determines the effectiveness of compounds in relieving one of the symptoms of neuropathic pain produced by unilateral mononeuropathy, namely cold allodynia. Unilateral mononeuropathy was produced in rats using the Chronic Constriction Injury model performed essentially as described by Bennet and Xie, Pain, (1988) 33:87-107. Briefly, the rats were anesthetized with an intraperitoneal dose of pentobarbital sodium (65 mg/kg) with additional doses of anesthetic given as needed. The lateral aspect of each rat's hind limb was shaved and scrubbed with Novasan. Using aseptic technique, an incision was made on the lateral aspect of the hind limb at the mid-thigh level. The biceps femoris was bluntly dissected to expose the sciatic nerve. On the right hind limb of each rat, four loosely tied ligatures were made around the sciatic nerve approximately 1-2 millimeters apart. On the left side of each rat, an identical dissection was performed except that the sciatic nerve was not ligated. The muscle was closed with a continuous suture pattern, and the skin was closed with wound clips. Each rat was placed individually into a plexiglass chamber with a metal plate 6 cm from the bottom. This chamber was filled with ice water to a depth of 2.5 cm above the metal plate, with the temperature of the bath maintained at 0° C. throughout the experiment. A timer was started, and the rat's response latency was measured to the nearest tenth of a second. A "response" was defined as a rapid withdrawal of the right ligated hindpaw completely out of the water while the animal was stationary and not pivoting. An exaggerated limp while the animal was walking was not scored as a response. Maximum immersion time was 20 seconds with a 20 minute interval between trials. The screening criteria were 1) the average of two trials was less than or equal to 13 seconds, and 2) there was consistency across the two trial scores. Animals were screened for hypersensitivity to cold on post-surgery days 4 through 10, and selected for inclusion in dose-response studies based on the criteria described above. The pre-dose screening values were used as the animal's baseline cold allodynia scores. For acute studies, the animals received either subcutaneous or oral injections and were tested for cold allodynia at 1, 3, and sometimes 5 hours post-dose. The selection of doses was similar to that of Example 12C.

[3] = Metabolism to Formula II / plasma levels of Formula II after oral administration; format: in vivo
[4] = tested on: mechanical allodynia in rats; experiment: Mechanical allodynia in vivo assay (spinal nerve ligation); set-up: species or system rat
Protocol: This assay determines the effectiveness of compounds in relieving one of the symptoms of neuropathic pain produced by spinal nerve ligation, namely mechanical allodynia. The surgical procedure was performed essentially as described by Kim and Chung, Pain, (1992) 50:355-363. Briefly, the rats were anesthetized with an intraperitoneal dose of pentobarbital sodium (65 mg/kg) with additional doses of anesthetic given as needed. Each animal was then placed in a prone position, a 3 cm lateral incision was made, and the left paraspinal muscles separated from the spinous process at the L4 -S2 level. The L6 transverse process was then removed in order to visually identify the L4 -L6 spinal nerves. The L5 and L6 spinal nerves were then individually isolated and tightly ligated with silk thread. The wound was then closed in layers by silk sutures. Seven to 28 days post-surgery, a calibrated series of eight von Frey filaments were used to assess mechanical allodynia. Animals were housed individually in plexiglass cages with a wire mesh floor. Filaments of increasing stiffness were applied perpendicular to the midplantar surface in the sciatic nerve distribution areas of the left hindpaw and were slowly depressed (4-6 seconds) until bending occurred. The filament application order and number of trials were determined by the up-down method of Dixon (Chaplan, et al., J. Neurosci. Methods, (1994) 53:55-63). Flinching and licking of the paw and paw withdrawal on the ligated side were all considered positive responses. The 50% paw withdrawal threshold (g) was then calculated and compared to control. The doses for the acute and chronic studies were selected on the basis of prior assessment of the acute effects on the test compounds on the gross behavior in normal rats. Briefly, the rats were weighed and grouped into cages, dosed with the test compound, and observed continuously for changes in behavior. […] Pinna and corneal reflexes were tested by using a piece of natural hair from a brush that is attached to a glass rod. The righting reflexes were tested by placing the rat flat on its back, and recording the time it takes for the animal to right itself onto all four legs. The posture and gait were assessed by placing the rat on the floor.

[5] = cold allodynia, acute, 1 hr, read-out: ED50 1 hr
[6] = mechanical allodynia, subcutaneous
[7] = cold allodynia, acute, in words

CCNC(C)COc1c(C)cccc1C (racemic) [Formula I racemate, [2-(2,6-dimethylphenoxy)-1-methylethyl]-ethylamine]
anti-allodynia after chronic dosing (cold allodynia in rats [1]): significant levels of anti-allodynia
ED50 (cold allodynia in rats [2]; [5]): 15.7 mg/kg
Emax 1 hr (cold allodynia in rats [2]; cold allodynia, acute, 1 hr): 82%
anti-allodynic effect, acute dosing (cold allodynia in rats [2]; 5 mg/kg, 1, 3 or 5 hours post-dose): no significant anti-allodynic effects
metabolism to the compound of Formula II ([3]; oral, mammal): metabolized to some extent to the compound of Formula II
ED50 ([4]; Rattus norvegicus, sc, mechanical allodynia, subcutaneous): 12.6 mg/kg
EDmax [4, 6]: 66%
maximal analgesic activity (Emax) [4, 6]: 66%
potency (ED50) comparison ([4]; mechanical allodynia, subcutaneous, in words): considerably more potent (ED50) than II or III

CCN[C@H](C)COc1c(C)cccc1C [Formula I (R)-, (R)-[2-(2,6-dimethylphenoxy)-1-methylethyl]-ethylamine]
anti-allodynic effect after chronic oral dosing (cold allodynia in rats [1]; oral, chronic, (R)-enantiomer 10 and 20 mg/kg, sub-threshold): as robust an anti-allodynic effect as an acute dose of compound I that is 10 fold higher
anti-allodynia after chronic dosing (cold allodynia in rats [1]): significant levels of anti-allodynia
ED50 (cold allodynia in rats [2]; [5]): 37 mg/kg
ED50 (cold allodynia in rats [2]; cold allodynia, acute, 3 hr, read-out: ED50 3 hr): 23.4 mg/kg
Emax 1 hr (cold allodynia in rats [2]; cold allodynia, acute, 1 hr): 91%
Emax 3 hr (cold allodynia in rats [2]; cold allodynia, acute, 3 hr): 87%
duration of action in vivo compared with racemate, (S)-enantiomer, or II (cold allodynia in rats [2]; [7]): longer duration of action
maximal analgesic activity (Emax) compared with III or IV (cold allodynia in rats [2]; [7]): significantly greater maximal analgesic activity
maximal analgesic activity compared with racemate, (S)-enantiomer, or II (cold allodynia in rats [2]; [7]): greater maximal analgesic activity
potency (ED50) comparison of (R)-isomers (cold allodynia in rats [2]; [7]): comparable potency
plasma level of Formula II after oral (R)-enantiomer of Formula I, less than after acute administration of Formula II itself ([3]; oral administration, plasma): 5-10 fold less
maximal analgesic activity (Emax) [4, 6]: 98%
maximal analgesic activity, comparison ([4]; mechanical allodynia, subcutaneous, vs racemates of I, II and III): significantly greater maximal analgesic activity
analgesia against mechanical allodynia ([4]; oral administration): did not produce analgesia
